{"source": "patent US11407744B2", "about": "“Compound and pharmaceutical composition comprising same” (AUTOPHAGYSCIENCES INC., priority 2018, dated 2022)", "data": [{"system": "LC3-II production in Hep3B cells", "experiment": "Autophagy activation: degree of LC3-II production in Hep3B cells (Western blot band density)", "format": "cell-based, human", "details": "12 hours", "experimental": "(§1) The degree of autophagy activation of each compound was evaluated by measuring the degree of LC3-II production in Hep3B cells.\n(§2) Specifically, Hep3B human hepatocytes were cultured in DMEM medium at 37° C. under 5% CO2 atmosphere. The respective cells were dispensed into 6-well plates at a density of 5×10^5 cells/well. These cells were treated with DMSO, the compound prepared in Examples described above, and the compound of Comparative Example, respectively, and then treated in DMEM medium at 37° C. under 5% CO2 atmosphere for 12 hours to induce autophagy. Subsequently, Hep3B cells were lysed with an extraction buffer containing protease inhibitor cocktail (PBS solution containing 0.5% Triton X-100, 1 mM Na3VO4, etc.), and then fragmentation of DNA was performed by sonication. The amount of protein was measured with bovine serum albumin as a protein standard using SMART™ BCA Protein Assay kit from iNtRON Biotechnology. After electrophoresis of 10˜50 μg of total cell protein in 8˜12% (w/v) polyacrylamide gel containing 0.1% SDS, the proteins present in a gel were transferred to PVDF membrane by an electroblotting technique. Then, in order to block non-specific binding, the PVDF membrane was placed in a TBS-tween (tris-buffered saline-tween, Sigma Co.) solution containing 5% non-fat dry milk and reacted at room temperature for 1 hour. The filter was placed in a TBS-tween solution containing a specific antibody against LC3 protein (Cell Signaling), allowed to stand at 4° C. for 12 hours, and then labeled with a secondary antibody labeled with HRP (Horseradish Peroxidase, Sigma Co., Cat No. P0889). Then, bands were measured using ECL (Enhanced Chemiluminescence, Thermo Scientific, Cat No. 34080).\n(§3) The induction of autophagy can be confirmed by an increase in specific LC3-II molecules. LC3 precursors are usually scattered in the cytoplasm, proteolytically cleaved, and present in the form of LC3-I. When autophagy is activated, the C-terminal glycine is modified to form LC3-II, which migrates to autophagosome and is distributed in puncta form.\n(§4) The amount of LC3-II increased by the compound treatment was quantified by measuring the band density, and then compared with the amount of LC3-II increased by the treatment of the compound of Comparative Example, and the comparison values are shown in Table 1.", "values": [{"smiles": "COc1ccc(-c2ccc(C(=O)NC(C)C)s2)cc1OC", "note": "[Comparative Example, 5-(3,4-dimethoxyphenyl)-N-isopropylthiophene-2-carboxamide, reference compound]", "increase in LC3-II (induction of autophagy), in words": "Hep3B cells induce autophagy"}]}, {"system": "LC3-II production in Hep3B cells", "experiment": "Autophagy activation: degree of LC3-II production in Hep3B cells (Western blot band density)", "format": "cell-based, human", "details": "amount of LC3-II increased by compound treatment relative to that of the Comparative Example (=1), 12 hours", "experimental": "as §1, §2, §3, §4", "values": [{"smiles": "COc1ccc(-c2ccc(C(=O)NC(C)C)s2)cc1OC", "note": "[Comparative Example, 5-(3,4-dimethoxyphenyl)-N-isopropylthiophene-2-carboxamide, reference compound]", "Autophagy-inducing capacity": 1.00}, {"smiles": "COc1cc(-c2ccc(C(=O)NC(C)C)s2)ccc1O", "note": "[Example 1, 5-(4-hydroxy-3-methoxyphenyl)-N-isopropylthiophene-2-carboxamide]", "Autophagy-inducing capacity": 1.48}, {"smiles": "COc1ccc(-c2ccc(C(=O)NC(C)C)s2)cc1O", "note": "[Example 2, 5-(3-hydroxy-4-methoxyphenyl)-N-isopropylthiophene-2-carboxamide]", "Autophagy-inducing capacity": 1.38}, {"smiles": "CC(C)NC(=O)c1ccc(-c2cccc(O)c2)s1", "note": "[Example 4, 5-(3-hydroxyphenyl)-N-isopropylthiophene-2-carboxamide]", "Autophagy-inducing capacity": 1.16}, {"smiles": "CC(C)NC(=O)c1ccc(-c2ccc(O)cc2)s1", "note": "[Example 5, 5-(4-hydroxyphenyl)-N-isopropylthiophene-2-carboxamide]", "Autophagy-inducing capacity": 1.80}, {"smiles": "CC(C)NC(=O)c1ccc(-c2cccnc2)s1", "note": "[Example 7, N-isopropyl-5-(pyridin-3-yl)thiophene-2-carboxamide]", "Autophagy-inducing capacity": 1.24}, {"smiles": "CC(C)NC(=O)c1ccc(-c2ccc3[nH]ccc3c2)s1", "note": "[Example 11, 5-(1H-indol-5-yl)-N-isopropylthiophene-2-carboxamide]", "Autophagy-inducing capacity": 2.13}, {"smiles": "COc1ccc(-c2ccc(C(=O)NC(C)C)s2)c(OC)n1", "note": "[Example 12, 5-(2,6-dimethoxypyridin-3-yl)-N-isopropylthiophene-2-carboxamide]", "Autophagy-inducing capacity": 1.19}, {"smiles": "COc1cc(-c2ccc(C(=O)NC(C)C)s2)cnc1N", "note": "[Example 14, 5-(6-amino-5-methoxypyridin-3-yl)-N-isopropylthiophene-2-carboxamide]", "Autophagy-inducing capacity": 1.13}, {"smiles": "CC(C)NC(=O)c1ccc(-c2cncc3ccccc23)s1", "note": "[Example 15, N-isopropyl-5-(isoquinolin-4-yl)thiophene-2-carboxamide]", "Autophagy-inducing capacity": 1.50}, {"smiles": "CC(C)NC(=O)c1ccc(-c2cnc3ccccc3c2)s1", "note": "[Example 17, N-isopropyl-5-(quinolin-3-yl)thiophene-2-carboxamide]", "Autophagy-inducing capacity": 1.99}, {"smiles": "CC(C)NC(=O)c1ccc(-c2cccc(N)c2)s1", "note": "[Example 18, 5-(3-aminophenyl)-N-isopropylthiophene-2-carboxamide]", "Autophagy-inducing capacity": 1.13}, {"smiles": "CC(C)NC(=O)c1ccc(-c2ccc(F)c(F)c2)s1", "note": "[Example 27, 5-(3,4-difluorophenyl)-N-isopropylthiophene-2-carboxamide]", "Autophagy-inducing capacity": 1.01}, {"smiles": "Cc1cc(C)cc(-c2ccc(C(=O)NC(C)C)s2)c1", "note": "[Example 28, 5-(3,5-dimethylphenyl)-N-isopropylthiophene-2-carboxamide]", "Autophagy-inducing capacity": 1.60}, {"smiles": "Cc1cccc(-c2ccc(C(=O)NC(C)C)s2)c1", "note": "[Example 30, N-isopropyl-5-m-tolylthiophene-2-carboxamide]", "Autophagy-inducing capacity": 1.02}, {"smiles": "Cc1ccc(-c2ccc(C(=O)NC(C)C)s2)c(C)c1", "note": "[Example 31, 5-(2,4-dimethylphenyl)-N-isopropylthiophene-2-carboxamide]", "Autophagy-inducing capacity": 1.49}, {"smiles": "Cc1cc(C)cc(-c2ccc(C(=O)Nc3ccccc3)s2)c1", "note": "[Example 48, 5-(3,5-dimethylphenyl)-N-phenylthiophene-2-carboxamide]", "Autophagy-inducing capacity": 1.46}, {"smiles": "O=C(Nc1ccccc1)c1ccc(-c2cccnc2)s1", "note": "[Example 49, N-phenyl-5-(pyridin-3-yl)thiophene-2-carboxamide]", "Autophagy-inducing capacity": 1.51}, {"smiles": "O=C(Nc1cccnc1)c1ccc(-c2cccnc2)o1", "note": "[Example 58, N,5-di(pyridin-3-yl)furan-2-carboxamide]", "Autophagy-inducing capacity": 1.10}, {"smiles": "CC(C)NC(=O)c1ccc(-c2cncc3ccccc23)o1", "note": "[Example 65, N-isopropyl-5-(isoquinolin-4-yl)furan-2-carboxamide]", "Autophagy-inducing capacity": 1.66}, {"smiles": "CC(C)OC(=O)c1ccc(-c2cccnc2)s1", "note": "[Example 72, isopropyl 5-(pyridin-3-yl)thiophene-2-carboxylate]", "Autophagy-inducing capacity": 1.08}, {"smiles": "Cc1cc(C)cc(-c2ccc(C(=O)NC(C)C)o2)c1", "note": "[Example 85, 5-(3,5-dimethylphenyl)-N-isopropylfuran-2-carboxamide]", "Autophagy-inducing capacity": 1.09}, {"smiles": "CCOC(=O)c1ccc(-c2cnc3ccccc3c2)o1", "note": "[Example 88, ethyl 5-(quinolin-3-yl)furan-2-carboxylate]", "Autophagy-inducing capacity": 1.02}, {"smiles": "CCOC(=O)c1ccc(-c2ccc(C#N)cc2)o1", "note": "[Example 89, ethyl 5-(4-cyanophenyl)furan-2-carboxylate]", "Autophagy-inducing capacity": 1.64}, {"smiles": "O=C(Nc1cccnc1)c1ccc(-c2cccc(O)c2)o1", "note": "[Example 91, 5-(3-hydroxyphenyl)-N-(pyridin-3-yl)furan-2-carboxamide]", "Autophagy-inducing capacity": 1.33}, {"smiles": "CCNC(=O)c1cccc(-c2ccc(C(=O)NC(C)C)o2)c1", "note": "[Example 92, 5-(3-(ethylcarbamoyl)phenyl)-N-isopropylfuran-2-carboxamide]", "Autophagy-inducing capacity": 1.41}, {"smiles": "CCNC(=O)c1ccc(-c2ccc(C(=O)NC(C)C)o2)cc1", "note": "[Example 93, 5-(4-(ethylcarbamoyl)phenyl)-N-isopropylfuran-2-carboxamide]", "Autophagy-inducing capacity": 1.19}, {"smiles": "CC(C)NC(=O)c1ccc(-c2ccc(C(=O)NC(C)C)o2)cc1", "note": "[Example 94, N-isopropyl-5-(4-(isopropylcarbamoyl)phenyl)furan-2-carboxamide]", "Autophagy-inducing capacity": 1.17}]}]}
